Test results reported in PubChem BioAssay AID2060908 (Molecular Pharmacology Branch, DTP, NCI, 2025).

Test system: 186277-243-T-J2-PDC complex spheroids, viability
Test: Anticancer human tumor 186277-243-T-J2-PDC patient-derived colon adenocarcinoma cell line growth inhibition [RAS]
Conditions: for viability, T/C: stronger effect = lower value
How it was run: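 Agents were tested in combination matrices in half-log decrements from a top concentration at or near clinical Cmax (10 microM if undetermined). Targets were multi-cell spheroids of tumour lines plus HUVEC and MSC stromal cells.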
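Note: spheroids exposed to compounds for 7 days before viability read.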

## O=C(c1ccc(F)c(F)c1Nc1ccc(I)cc1F)N1CC(O)([C@@H]2CCCCN2)C1 + CCn1c(-c2cc(N3CCN(C)CC3)cnc2C(C)OC)c2c3cc(ccc31)-c1csc(n1)CC(NC(=O)C1CC1C)C(=O)N1CCCC(N1)C(=O)OCC(C)(C)C2
Curve of first compound, second compound 0.000949 µM
  IC50: 64 nM
Curve of first compound, second compound 0.003 µM
  IC50: 31.5 nM
Curve of first compound, second compound 0.00949 µM
  IC50: < 3.16 nM
Curve of first compound, second compound 0.03 µM
  IC50: < 3.16 nM
Curve of first compound, second compound 0.0949 µM
  IC50: < 3.16 nM
Curve of first compound, second compound 0.3 µM
  IC50: < 3.16 nM
Second compound 0.000949 µM, first compound 0.00316 µM
  viability, T/C: 92.7%
Second compound 0.000949 µM, first compound 0.01 µM
  viability, T/C: 89.7%
Second compound 0.000949 µM, first compound 0.0316 µM
  viability, T/C: 83%
Second compound 0.000949 µM, first compound 0.1 µM
  viability, T/C: 29.1%
Second compound 0.000949 µM, first compound 0.316 µM
  viability, T/C: 8.1%
Second compound 0.000949 µM, first compound 1 µM
  viability, T/C: 4.25%
Second compound 0.003 µM, first compound 0.00316 µM
  viability, T/C: 114%
Second compound 0.003 µM, first compound 0.01 µM
  viability, T/C: 97.8%
Second compound 0.003 µM, first compound 0.0316 µM
  viability, T/C: 47.8%
Second compound 0.003 µM, first compound 0.1 µM
  viability, T/C: 18.8%
Second compound 0.003 µM, first compound 0.316 µM
  viability, T/C: 6.27%
Second compound 0.003 µM, first compound 1 µM
  viability, T/C: 3.79%
Second compound 0.00949 µM, first compound 0.00316 µM
  viability, T/C: 43.6%
Second compound 0.00949 µM, first compound 0.01 µM
  viability, T/C: 30.6%
Second compound 0.00949 µM, first compound 0.0316 µM
  viability, T/C: 13.6%
Second compound 0.00949 µM, first compound 0.1 µM
  viability, T/C: 7.57%
Second compound 0.00949 µM, first compound 0.316 µM
  viability, T/C: 4.59%
Second compound 0.00949 µM, first compound 1 µM
  viability, T/C: 3.19%
Second compound 0.03 µM, first compound 0.00316 µM
  viability, T/C: 14.9%
Second compound 0.03 µM, first compound 0.01 µM
  viability, T/C: 9.48%
Second compound 0.03 µM, first compound 0.0316 µM
  viability, T/C: 6.73%
Second compound 0.03 µM, first compound 0.1 µM
  viability, T/C: 3.92%
Second compound 0.03 µM, first compound 0.316 µM
  viability, T/C: 3.2%
Second compound 0.03 µM, first compound 1 µM
  viability, T/C: 2.56%
Second compound 0.0949 µM, first compound 0.00316 µM
  viability, T/C: 6.07%
Second compound 0.0949 µM, first compound 0.01 µM
  viability, T/C: 5.43%
Second compound 0.0949 µM, first compound 0.0316 µM
  viability, T/C: 4.04%
Second compound 0.0949 µM, first compound 0.1 µM
  viability, T/C: 2.64%
Second compound 0.0949 µM, first compound 0.316 µM
  viability, T/C: 2.57%
Second compound 0.0949 µM, first compound 1 µM
  viability, T/C: 2.4%
Second compound 0.3 µM, first compound 0.00316 µM
  viability, T/C: 5%
Second compound 0.3 µM, first compound 0.01 µM
  viability, T/C: 4.75%
Second compound 0.3 µM, first compound 0.0316 µM
  viability, T/C: 2.99%
Second compound 0.3 µM, first compound 0.1 µM
  viability, T/C: 2.73%
Second compound 0.3 µM, first compound 0.316 µM
  viability, T/C: 2.91%
Second compound 0.3 µM, first compound 1 µM
  viability, T/C: 2.4%

## CC1(O)CCCC1n1c(=O)c(C(F)F)cc2cnc(NC3CCN(S(C)(=O)=O)CC3)nc21 (centres undefined)
Compound 0.0316 µM
  viability, T/C: 108% [middle of 4 runs]
Compound 0.1 µM
  viability, T/C: 114% [middle of 4 runs]
Compound 3.16 µM
  viability, T/C: 83.6% [middle of 4 runs]
Compound 10 µM
  viability, T/C: 2.71% [middle of 4 runs]
Curve of compound
  IC50: 4.81 µM [middle of 4 runs]

## CCC(CC)c1cc(NC2CCC(N)C2)n2nccc2n1 (centres undefined) + C=CC(=O)N1CCN(c2nc(OCC3CCCN3C)nc3c(F)c(-c4nc(N)cc(C)c4C(F)(F)F)c(Cl)cc23)C(C)C1
Curve of first compound, second compound 0.00316 µM
  IC50: 1860 nM
Curve of first compound, second compound 0.01 µM
  IC50: 1670 nM
Curve of first compound, second compound 0.0316 µM
  IC50: 1800 nM
Curve of first compound, second compound 0.1 µM
  IC50: 1550 nM
Curve of first compound, second compound 0.316 µM
  IC50: 1810 nM
Curve of first compound, second compound 1 µM
  IC50: 1600 nM
Second compound 0.00316 µM, first compound 0.0316 µM
  viability, T/C: 91.8%
Second compound 0.00316 µM, first compound 0.1 µM
  viability, T/C: 97.2%
Second compound 0.00316 µM, first compound 0.316 µM
  viability, T/C: 89.5%
Second compound 0.00316 µM, first compound 1 µM
  viability, T/C: 117%
Second compound 0.00316 µM, first compound 3.16 µM
  viability, T/C: 7.95%
Second compound 0.00316 µM, first compound 10 µM
  viability, T/C: 0.31%
Second compound 0.01 µM, first compound 0.0316 µM
  viability, T/C: 78%
Second compound 0.01 µM, first compound 0.1 µM
  viability, T/C: 103%
Second compound 0.01 µM, first compound 0.316 µM
  viability, T/C: 76.2%
Second compound 0.01 µM, first compound 1 µM
  viability, T/C: 84.2%
Second compound 0.01 µM, first compound 3.16 µM
  viability, T/C: 7.63%
Second compound 0.01 µM, first compound 10 µM
  viability, T/C: 0.49%
Second compound 0.0316 µM, first compound 0.0316 µM
  viability, T/C: 86.4%
Second compound 0.0316 µM, first compound 0.1 µM
  viability, T/C: 93.5%
Second compound 0.0316 µM, first compound 0.316 µM
  viability, T/C: 93.8%
Second compound 0.0316 µM, first compound 1 µM
  viability, T/C: 115%
Second compound 0.0316 µM, first compound 3.16 µM
  viability, T/C: 5.08%
Second compound 0.0316 µM, first compound 10 µM
  viability, T/C: 0.32%
Second compound 0.1 µM, first compound 0.0316 µM
  viability, T/C: 93%
Second compound 0.1 µM, first compound 0.1 µM
  viability, T/C: 102%
Second compound 0.1 µM, first compound 0.316 µM
  viability, T/C: 77.5%
Second compound 0.1 µM, first compound 1 µM
  viability, T/C: 79%
Second compound 0.1 µM, first compound 3.16 µM
  viability, T/C: 3.18%
Second compound 0.1 µM, first compound 10 µM
  viability, T/C: 0.31%
Second compound 0.316 µM, first compound 0.0316 µM
  viability, T/C: 81%
Second compound 0.316 µM, first compound 0.1 µM
  viability, T/C: 94.3%
Second compound 0.316 µM, first compound 0.316 µM
  viability, T/C: 117%
Second compound 0.316 µM, first compound 1 µM
  viability, T/C: 109%
Second compound 0.316 µM, first compound 3.16 µM
  viability, T/C: 2.74%
Second compound 0.316 µM, first compound 10 µM
  viability, T/C: 0.35%
Second compound 1 µM, first compound 0.0316 µM
  viability, T/C: 102%
Second compound 1 µM, first compound 0.1 µM
  viability, T/C: 91.8%
Second compound 1 µM, first compound 0.316 µM
  viability, T/C: 101%
Second compound 1 µM, first compound 1 µM
  viability, T/C: 82.9%
Second compound 1 µM, first compound 3.16 µM
  viability, T/C: 2.87%
Second compound 1 µM, first compound 10 µM
  viability, T/C: 0.37%
